# Data from US10076511B2, “Bisamide derivative of dicarboxylic acid as an agent for stimulating tissue regeneration and recovery of diminished tissue function” (TREAMID GmbH, priority 2015, dated 2018).
# Values joined by “and” are separate entries in the source; they are usually repeats but may differ in a detail not shown here. Identical values can stand only once.
# What was measured:
# male Wistar rats = test: Metabolic syndrome model in rats (cafeteria diet); format: in vivo, rat
# Description: Metabolic syndrome was simulated in male Wistar rats (260-280 g) by keeping animals on a high-fat diet (“cafeteria diet”) for 12 weeks. The “cafeteria diet” was balanced according to Current Protocols in Pharmacology [Current Protocols in Pharmacology (2005) Animal Models of Disease//Contributed by Petter Hedlund, Kenshi Matsumoto, and Karl-Erik Andersson]. The diet contained 25-35% of fats and 25-30% of digestible carbohydrates in addition to the standard diet of rodents. Treamid was administered at a dose of 0.5 mg/kg intragastrically once daily, every day from Week 7 to Week 11 of the diet. Reference drug Metformin was administered at a dose of 200 mg/kg intragastrically according to the same regimen.
# The development of pathology and a therapeutic effect of Treamid were estimated by the following parameters: blood biochemical parameters (glucose, cholesterol, triglycerides (TG), HDL, LDL, atherogenicity index), glucose tolerance test, visceral fat weight, total number and percentage of motile sperm forms.
# Glucose was determined with an OneNouch Select glucometer (Switzerland).
# The levels of triglycerides, TCh and HDL were determined by using a diagnostic kit (Olvex Diagnosticum, Russia).
# The level of LDL was determined by the formula 2. LDL=TCh−(HDL+TG/2.2) (1),
# The atherogenicity index (AI) was calculated by the formula 3. AI=(TCh−HDL)/HDL (2),
# The atherogenicity index was calculated for each animal individually, and then the arithmetic mean value of the group was calculated.
# For the analysis of sperm, the animals were anesthetized with intraperitoneal injection of a mixture of Zolletil and Xyla (0.2 ml of Zoletil+0.8 ml Xyla) in a volume of 70 μl/100 g of weight. Epididymis was isolated. The epididymis head was cut off from the tail, weighed, 5 incisions were made (to improve the sperm yield), and placed in a tube containing 10 ml of phosphate buffered saline heated to 37° C. The tube was held at 37° C. for 10 minutes. Then, the tube was shaken on a shaker, 20 μl of the liquid was taken, applied to a glass slide heated to 37° C., and the number of motile sperm cells was assessed under a microscope. The calculation was performed up to 100 sperm cells.
# The total number of sperm cells in a test tube with epididymis was calculated as follows: 20 μl of the liquid was taken after shaking and added to a tube containing 400 μl of physiological saline. After shaking the tubes, their contents (20 μl) were taken out and introduced into Goryaev chamber. The number of sperm cells was counted in 100 large squares. The number of sperm cells in the head of epididymis was calculated by the formula: Number of sperm cells=number of sperm cells in 100 large squares of Goryaev chamber*0.525(factor from the calculation of the dilution and the volume of Goryaev chamber)/weight of the epididymis head.
# male rats = test: Morphological and functional state of spermatogenic tissue after Paclitaxel; format: in vivo, rat
# Protocol: The latter was simulated by a single injection of cytostatic drug Paclitaxel (Mitotax, Dr. Reddy's, India) to male rats (3 months of age). The choice of the drug was due to the fact that it is one of the medications that damage the precursors of spermatogenesis—stem cells.
# Paclitaxel was administered to the animals of the control and test groups once intravenously at the maximum tolerated dose of 7.6 mg/kg. Treamid was administered to the animals of the experimental groups intragastrically at a dose of 5 mg/kg in the form of a suspension in 2% starch mucus for 15 days a month after the administration of Paclitaxel. The control animals received an equivalent volume of the solvent (2% starch mucus), instead of the test compound.
# Morphological and functional state of the spermatogenic tissue was assessed to obtain an additional confirmation of the efficiency to stimulate the formation of committed stem cells.
# It was estimated by the following indices: the number of cells in the spermatogonial population, the average number of Sertoli cells, the degree of maturity of the spermatogenic layer, the number of Leydig cells, the endocrine activity of the testis, the total number of sperm cells per epididymis, and the percentage of motile sperm forms. For this, in euthanasia on Day 45, Day 65, and Day 90 of the experiment, the tail part of epididymis and testis were isolated at dissection. The epididymis of one testis was homogenized in a warm (37° C.) physiological saline, and the number of motile sperm forms was determined in the suspension of the epididymis cells. The total number of sperm cells per epididymis (TNS) was calculated by using a homogenized cell suspension of the second epididymis in a dosage amount of physiological saline using a leukocyte-count pipette and Goryaev chamber.
# A morphological assay of the testes of rats was performed by fixation thereof in Carnoy's fluid and by preparing paraffin sections. Deparaffined sections of a thickness of 5 μm were stained with hematoxylin-eosin. The number of cells in the spermatogonial population, the number of Sertoli cells, and the number of Leydig cells were counted on the testis section, and the endocrine activity of Leydig cells was determined. The degree of maturity of the spermatogenic layer was calculated based on the count of Sertoli cells. The calculation was carried out according to the formula for the experimental groups: y=5.95-0.18x; for the group of intact animals: y=6.7-0.23x, where x is the average number of Sertoli cells in the cross-section of the convoluted seminiferous tubule, and y is the index characterizing the degree of maturity of the spermatogenic layer. When choosing the time for studies, the duration of spermatogenesis in rats was taken into account, which was one and a half months. The duration of 45 and 65 days after administration of Paclitaxel corresponds to the manifestation of effects on the spermatogonial cell population.
# The criteria for stimulation of the process of regeneration of the testicular tissue were: an increase in the number of cells in the spermatogonial populations, the number of Sertoli cells, a decrease in the degree of maturity of the spermatogenic layer, and an increase in the productivity of spermatogenesis. The criterion of the functional activity of sperm cells is the percentage of their motile forms.
# [1] = Treamid 0.5 mg/kg, Metformin 200 mg/kg intragastrically Week 7-11 of high-fat diet
# [2] = high-fat diet for 12 weeks, Treamid 0.5 mg/kg, Metformin 200 mg/kg
# [3] = high-fat diet, Treamid 0.5 mg/kg, Metformin 200 mg/kg
# [4] = Day 45 after Paclitaxel, Treamid 5 mg/kg
# [5] = Day 65 after Paclitaxel, Treamid 5 mg/kg
# [6] = Day 90 after Paclitaxel, Treamid 5 mg/kg
smiles,measurement,setting,value
O=C(CCCC(=O)NCCc1ncc[nH]1)NCCc1ncc[nH]1 [Treamid],"Glucose level in the blood of male rats, mmol/L","male Wistar rats; 3 weeks after the drug administration, Treamid 0.5 mg/kg, Metformin 200 mg/kg",6.5 ± 0.2*& mmol/L
same,"Glucose level in the blood of male rats, mmol/L","male Wistar rats; 5 weeks after the drug administration, Treamid 0.5 mg/kg, Metformin 200 mg/kg",7.8 ± 0.2*& mmol/L
same,"Relative weight of visceral fat, Fat near the intestine",male Wistar rats; [1],0.94 ± 0.07 % based on body weight
same,"Relative weight of visceral fat, Fat near the kidneys",male Wistar rats; [1],0.48 ± 0.05& % based on body weight
same,"Relative weight of visceral fat, Fat near the testes",male Wistar rats; [1],1.03 ± 0.14 % based on body weight
same,"Relative weight of visceral fat, Total fat",male Wistar rats; [1],2.46 % based on body weight
same,reduction of visceral fat weight gain in comparison with the control group,"male Wistar rats; Treamid 0.5 mg/kg, Metformin",1.3 times
same,Glucose level in the blood of male rats,male Wistar rats; before administration of drugs (Week 6 of diet),6.4 ± 0.2 mmol/L
same,"HDL, mM/l",male Wistar rats; [2],1.9±0.2 mM/l and 1.9 ± 0.2& mM/l
same,"LDL, mM/l",male Wistar rats; [2],1.2 ± 0.2 mM/l
same,"Total cholesterol, mM/l",male Wistar rats; [2],3.5 ± 0.1 mM/l
same,"Triglycerides, mM/l",male Wistar rats; [2],0.9 ± 0.1 mM/l
same,Percentage of motile sperm forms,male Wistar rats; [3],34.43 ± 3.15& %
same,Total number of sperm cells,male Wistar rats; [3],260.0 ± 38.7&
same,"Glucose level in the blood of male rats, mmol/L","male Wistar rats; one week after the drug withdrawal, Treamid 0.5 mg/kg, Metformin 200 mg/kg",8.3 ± 0.7& mmol/L
same,increase of the percentage of motile sperm forms,male Wistar rats; vs. high-fat diet control,1.5 times
same,increase of the total number of sperm cells,male Wistar rats; vs. high-fat diet control,1.7 times
same,Number of motile sperm cells (%),male rats; [4],71.57 ± 3.19 %
same,The average number of Sertoli cells (abs.),male rats; [4],1.61 ± 0.03 abs.
same,The average number of spermatogonia (abs.),male rats; [4],14.56 ± 0.19 abs.
same,The degree of maturity of the spermatogenic layer (standard units),male rats; [4],5.66 ± 0.01 standard units
same,Total number of sperm cells (million),male rats; [4],146.00 ± 9.53 million
same,growth of percentage of motile sperm forms in comparison with the control,male rats; Day 65,32%
same,increase of productivity of spermatogenesis (TNS) in comparison with the control,male rats; Day 65,43%
same,Endocrine activity of testes,male rats; [5],4.31 ± 0.24
same,Number of Leydig cells,male rats; [5],9.48 ± 0.21
same,Number of motile sperm cells (%),male rats; [5],79.81 ± 1.61 %
same,The average number of Sertoli cells (abs.),male rats; [5],2.30 ± 0.03 abs.
same,The average number of spermatogonia (abs.),male rats; [5],13.07 ± 0.28 abs.
same,The degree of maturity of the spermatogenic layer (standard units),male rats; [5],5.54 ± 0.00 standard units
same,Total number of sperm cells (million),male rats; [5],145.20 ± 15.15 million
same,increase of productivity of spermatogenesis (TNS) in comparison with the control,male rats; Day 90,46%
same,Endocrine activity,male rats; [6],4.74 ± 4.04
same,Number of motile sperm cells (%),male rats; [6],67.80 ± 1.14 %
same,The average number of Leydig cells,male rats; [6],9.93 ± 0.08
same,The average number of Sertoli cells (abs.),male rats; [6],2.10 ± 0.06 abs.
same,The average number of spermatogonia (abs.),male rats; [6],14.43 ± 0.21 abs.
same,The degree of maturity of the spermatogenic layer (standard units),male rats; [6],5.57 ± 0.01 standard units
same,Total number of sperm cells (million),male rats; [6],186.20 ± 12.74 million
